In US20230218710A1, “METHOD OF TREATING CORONAVIRUS INFECTIONS” (priority 2020, published 2023):
Square brackets hold non-standard residues; d marks the D form. Peptide text beside a SMILES is read from it.

tested on: not listed separately; test: in vitro; conditions: human, pooled human plasma
Protocol: The metabolic stability of the peptides can be assessed in vitro by incubation in plasma and determination of the amount of peptide remaining over time. Peptides (50 μM) were incubated in pooled plasma from mice, monkeys, and humans at 37° C. Samples were removed at intervals up to 3 hours and immediately analyzed for the concentration of intact peptide by LC/MS/MS. The percent of peptide remaining in plasma at each time point was calculated relative to the initial peak area.

| Compound | remaining at 0.5 h, 50 μM [%] |
| --- | --- |
| CSCC[C@H](NC(=O)CNC(=O)[C@H](CCSC)NC(=O)[C@@H](N)CCSC)C(=O)N[C@H](C(=O)N[C@@H](Cc1ccccc1)C(=O)N[C@@H](CCC(N)=O)C(=O)N[C@@H](CO)C(=O)N[C@@H](CC(C)C)C(=O)O)C(C)C [compound 48] (H-MMGMVFQSL-OH) | 92 |
| CSCC[C@H](NC(=O)CNC(=O)[C@H](CCSC)NC(=O)[C@H](CCSC)NC(=O)[C@H](CCCNC(=N)N)NC(=O)[C@@H](N)CCCNC(=N)N)C(=O)N[C@H](C(=O)N[C@@H](Cc1ccccc1)C(=O)N[C@@H](CCC(N)=O)C(=O)N[C@@H](CO)C(=O)N[C@@H](CC(C)C)C(=O)O)C(C)C [compound 60] (H-RRMMGMVFQSL-OH) | 95 |
| CSCC[C@H](NC(=O)CNC(=O)[C@H](CCSC)NC(=O)[C@H](CCSC)NC(=O)[C@H](CCCNC(=N)N)NC(=O)[C@@H](N)CCCNC(=N)N)C(=O)N[C@H](C(=O)N[C@@H](Cc1ccccc1)C(=O)N[C@@H](CCC(N)=O)C(=O)O)C(C)C [compound 58] (H-RRMMGMVFQ-OH) | 69.5 |
| CSCC[C@H](NC(=O)CNC(=O)[C@H](CCSC)NC(=O)[C@H](CCSC)NC(=O)[C@@H](N)CCCNC(=N)N)C(=O)N[C@H](C(=O)N[C@@H](Cc1ccccc1)C(=O)N[C@@H](CCC(N)=O)C(=O)N[C@@H](CO)C(=O)O)C(C)C [compound 52] (H-RMMGMVFQS-OH) | 97.5 |
| CSCC[C@H](NC(=O)CNC(=O)[C@H](CCSC)NC(=O)[C@H](CCSC)NC(=O)[C@@H](N)CCCNC(=N)N)C(=O)N[C@H](C(=O)N[C@@H](Cc1ccccc1)C(=O)N[C@@H](CCC(N)=O)C(=O)N[C@@H](CO)C(=O)N[C@@H](CC(C)C)C(=O)O)C(C)C [compound 53] (H-RMMGMVFQSL-OH) | 85.8 |
| CSCC[C@H](NC(=O)CNC(=O)[C@H](CCSC)NC(=O)[C@H](CCSC)NC(=O)[C@H](CCCNC(=N)N)NC(=O)[C@H](CCCNC(=N)N)NC(=O)[C@@H](N)CCSC)C(=O)N[C@H](C(=O)N[C@@H](Cc1ccccc1)C(=O)N[C@@H](CCC(N)=O)C(=O)N[C@@H](CS)C(=O)N[C@@H](CC(C)C)C(=O)N[C@@H](CS)C(=O)NCC(=O)N[C@@H](CC(C)C)C(=O)O)C(C)C [compound 7] | 52.4 |
| CSCC[C@H](NC(=O)CNC(=O)[C@H](CCSC)NC(=O)[C@H](CCSC)NC(=O)[C@H](CCCNC(=N)N)NC(=O)[C@@H](N)CCCNC(=N)N)C(=O)N[C@H](C(=O)O)C(C)C [compound 56] (H-RRMMGMV-OH) | 92.1 |
| CSCC[C@H](NC(=O)CNC(=O)[C@H](CCSC)NC(=O)[C@H](CCSC)NC(=O)[C@H](CCCNC(=N)N)NC(=O)[C@@H](N)CCCNC(=N)N)C(=O)N[C@H](C(=O)N[C@@H](Cc1ccccc1)C(=O)N[C@@H](CCC(N)=O)C(=O)N[C@@H](CO)C(=O)O)C(C)C [compound 59] (H-RRMMGMVFQS-OH) | 62.9 |
| CSCC[C@H](NC(=O)CNC(=O)[C@H](CCSC)NC(=O)[C@H](CCSC)NC(=O)[C@H](CCCNC(=N)N)NC(=O)[C@@H](N)CCCNC(=N)N)C(=O)O [compound 55] (H-RRMMGM-OH) | 100 |
| CSCC[C@H](NC(=O)CNC(=O)[C@H](CCSC)NC(=O)[C@H](CCSC)NC(=O)[C@@H](N)CCCNC(=N)N)C(=O)N[C@H](C(=O)N[C@@H](Cc1ccccc1)C(=O)N[C@@H](CCC(N)=O)C(=O)O)C(C)C [compound 51] (H-RMMGMVFQ-OH) | 100 |
| CSCC[C@H](NC(=O)CNC(=O)[C@H](CCSC)NC(=O)[C@H](CCSC)NC(=O)[C@H](CCCNC(=N)N)NC(=O)[C@@H](N)CCCNC(=N)N)C(=O)N[C@H](C(=O)N[C@@H](Cc1ccccc1)C(=O)O)C(C)C [compound 57] (H-RRMMGMVF-OH) | 91.9 |
| CSCC[C@H](NC(=O)CNC(=O)[C@H](CCSC)NC(=O)[C@@H](N)CCSC)C(=O)N[C@H](C(=O)N[C@@H](Cc1ccccc1)C(=O)O)C(C)C [compound 45] (H-MMGMVF-OH) | 90.8 |
| CSCC[C@H](NC(=O)CNC(=O)[C@H](CCSC)NC(=O)[C@@H](N)CCSC)C(=O)N[C@H](C(=O)N[C@@H](Cc1ccccc1)C(=O)N[C@@H](CCC(N)=O)C(=O)N[C@@H](CO)C(=O)O)C(C)C [compound 47] (H-MMGMVFQS-OH) | 86.1 |
| CSCC[C@H](NC(=O)CNC(=O)[C@H](CCSC)NC(=O)[C@@H](N)CCSC)C(=O)N[C@H](C(=O)N[C@@H](Cc1ccccc1)C(=O)N[C@@H](CCC(N)=O)C(=O)O)C(C)C [compound 46] (H-MMGMVFQ-OH) | 100 |
| CSCC[C@H](NC(=O)CNC(=O)[C@H](CCSC)NC(=O)[C@H](CCSC)NC(=O)[C@@H](N)CCCNC(=N)N)C(=O)N[C@H](C(=O)N[C@@H](Cc1ccccc1)C(=O)O)C(C)C [compound 50] (H-RMMGMVF-OH) | 87.7 |
| CSCC[C@H](NC(=O)CNC(=O)[C@H](CCSC)NC(=O)[C@H](CCSC)NC(=O)[C@H](CCCNC(=N)N)NC(=O)[C@@H](N)CCCNC(=N)N)C(=O)N[C@H](C(=O)N[C@@H](Cc1ccccc1)C(=O)N[C@@H](CCC(N)=O)C(=O)N[C@@H](CO)C(=O)N[C@@H](CC(C)C)C(=O)N[C@@H](CS)C(=O)NCC(=O)N[C@H](C)C(N)=O)C(C)C [compound 62] | 30.3 |
| CC[C@H](C)[C@H](NC(=O)[C@H](CCCNC(=N)N)NC(=O)[C@@H](N)CCCNC(=N)N)C(=O)N[C@H](C(=O)N[C@H](C)C(=O)N[C@H](C(=O)N[C@H](C(=O)N[C@@H](Cc1ccccc1)C(=O)N[C@@H](CCC(N)=O)C(=O)N[C@@H](CS)C(=O)N[C@@H](CC(C)C)C(=O)N[C@@H](CS)C(=O)N[C@H](C)C(=O)N[C@@H](CC(C)C)C(=O)O)C(C)C)[C@@H](C)CC)[C@@H](C)CC [compound 9] (H-RRII[dA]IVFQCLC[dA]L-OH) | 92.5 |

target: T1, Apelin Receptor (APJ) (Homo sapiens, UniProt P35414); test: cell-based; conditions: CHO-K1, 0.5 h, read-out: Percent of Pyr-Apelin-13 Control Activity
T1 construct: host or cells: CHO-K1 AGTRL1 Gi cells
T1 sequence (P35414 1-380): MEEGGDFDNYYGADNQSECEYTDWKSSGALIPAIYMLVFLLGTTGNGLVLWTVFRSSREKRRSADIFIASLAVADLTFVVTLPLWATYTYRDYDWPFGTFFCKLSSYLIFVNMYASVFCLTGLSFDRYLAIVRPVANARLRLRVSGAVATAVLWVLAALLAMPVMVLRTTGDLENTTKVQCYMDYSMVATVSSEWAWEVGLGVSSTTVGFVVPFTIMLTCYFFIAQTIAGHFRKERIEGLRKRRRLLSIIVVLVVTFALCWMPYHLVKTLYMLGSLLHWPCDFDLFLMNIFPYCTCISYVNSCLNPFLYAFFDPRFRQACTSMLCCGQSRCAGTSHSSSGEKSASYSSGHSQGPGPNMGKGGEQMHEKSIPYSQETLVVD
Protocol: Peptides were initially prepared as 30 mM stock in DMSO and diluted to 3 mM in H2O or directly as 3 mM stock in H2O; used at a final concentration of 10 μM (0-0.1% DMSO).

| Compound | Emax at 10 µM [%] |
| --- | --- |
| COCCOCCOCCOCCOCCOCCOCCOCCOCCOCCOCCOCCC(=O)N[C@@H](CCCCN)C(=O)N[C@@H](CCCNC(=N)N)C(=O)N[C@@H](CCCNC(=N)N)C(=O)N[C@@H](CCSC)C(=O)N[C@@H](CCSC)C(=O)NCC(=O)N[C@@H](CCSC)C(=O)N[C@H](C(=O)N[C@@H](Cc1ccccc1)C(=O)N[C@@H](CCC(N)=O)C(=O)N[C@@H](CO)C(=O)N[C@@H](CC(C)C)C(=O)N[C@@H](CS)C(=O)NCC(=O)N[C@H](C)C(=O)O)C(C)C [compound 36] | 101 |
| COCCOCCOCCOCCOCCOCCOCCOCCOCCOCCOCCOCCC(=O)N[C@@H](CCCCN)C(=O)N[C@@H](CCCNC(=N)N)C(=O)N[C@@H](CCCNC(=N)N)C(=O)N[C@@H](CC(C)C)C(=O)N[C@@H](CC(C)C)C(=O)NCC(=O)N[C@@H](CC(C)C)C(=O)N[C@H](C(=O)N[C@@H](Cc1ccccc1)C(=O)N[C@@H](CCC(N)=O)C(=O)N[C@@H](CO)C(=O)N[C@@H](CC(C)C)C(=O)N[C@@H](CS)C(=O)NCC(=O)N[C@H](C)C(=O)O)C(C)C [compound 37] | 53 |

tested on: LPS-induced acute lung injury mouse model; test: LPS-induced acute lung injury model in mouse (Example 6); format: in vivo, mice; conditions: histopathology, 0-5 scale, 24 h after LPS, 5 mg/kg i.p.
Protocol: The effect of the peptides of the current invention on acute lung injury can be assessed in an LPS-induced acute lung injury mouse model by monitoring outcomes such as lung weight, fluid accumulation, cytokine secretion in blood or bronchoalveolar lavage fluid (BALF), neutrophil infiltration into lung tissues, and assessment of acute lung injury score by histopathology. Acute lung injury was induced in male C57BL/6 mice (6 to 8 weeks old) by intratracheal administration of 40 μL lipopolysaccharide (LPS) (Sigma Aldrich, St. Louis, Mo.) in PBS at 5 mg/kg. Control animals received intratracheal PBS alone. […] Treatments were administered 1 h prior to LPS for animals designated for sacrifice at 4 h after LPS, or at both 1 h prior to and 6 h after LPS for animals designated for sacrifice at 24 h after LPS. At 4 or 24 hours post LPS administration, tissues were harvested. Lungs were weighed, flushed with Hanks Buffer to provide bronchoalveolar lavage fluid (BALF). Lungs were fixed in 10% neutral buffered formalin (NBF) for histopathology. Tissue slides were stained with hematoxylin and eosin (H&E) and evaluated and scored with light microscopy of 5 representative microscopic fields (100× magnification) scoring on a 0-5 scale using standard methods (Matute-Bello G et al 2011. An Official American Thoracic Society Workshop Report: Features and Measurements of Experimental Acute Lung Injury in Animals. Am J Respir Cell Mol Biol 44:725-38). The average score for five fields was calculated for each animal. Levels of pro-inflammatory cytokines in BALF were determined using a meso scale discovery (MSD) system. Data for test peptides were compared to the vehicle control group. Lung weights were normalized to body weight.

| Compound | Mean (SEM) Alveolar Neutrophil Infiltration Score | Mean (SEM) Interstitial Neutrophil Infiltration Score |
| --- | --- | --- |
| (PEG12)KRRMMGMVFQSLCG(dA) (KRRMMGMVFQSLCGA; N-terminal PEG12; C-terminal D-alanine; (1)..(1) PEG12; (15)..(15) D-Ala) [SEQ ID NO: 36] | 1.98 (0.18) | 1.60 (0.14) |

same assay, conditions: histopathology, 24 h after LPS, 5 mg/kg i.p.

| Compound | Mean (SEM) Composite Lung Injury Score |
| --- | --- |
| (PEG12)KRRMMGMVFQSLCG(dA) (KRRMMGMVFQSLCGA; N-terminal PEG12; C-terminal D-alanine; (1)..(1) PEG12; (15)..(15) D-Ala) [SEQ ID NO: 36] | 3.65 (0.28) |

target: human APJ (Homo sapiens, UniProt P35414); test: cell-based; conditions: CHO-K1, 1.5 h, read-out: Percent of Apelin-13 Control Activity
Protocol: The effect of the peptides on activation of Apelin Receptor (APJ) can be assessed using an assay to monitor β-Arrestin recruitment in cultured cells overexpressing APJ such as CHO-K1, derived from Chinese hamster ovary. β-Arrestin recruitment assays were performed by Eurofins-DiscoverX (Fremont, Calif.) using CHO-K1 AGTRL1 β-Arrestin cell line (co-expressing ProLink tagged human APJ and Enzyme Acceptor tagged β-Arrestin) and PathHunter detection kit. Peptides were initially prepared either as 10 mM stock in DMSO and used at a final concentration of 10 μM (0.1% DMSO). CHO-K1 AGTRL1 β-Arrestin cells were seed onto 384-well plates in standard medium. […] Following 90 min. incubation at 37° C., β-Arrestin recruitment in response to various treatments was quantified using a chemiluminescent complementation reporter assay to measure association of tagged human APJ (ProLink tag) and tagged β-Arrestin (Enzyme Acceptor tag).

Sequence of human APJ (P32121 whole entry partner, one chain of several): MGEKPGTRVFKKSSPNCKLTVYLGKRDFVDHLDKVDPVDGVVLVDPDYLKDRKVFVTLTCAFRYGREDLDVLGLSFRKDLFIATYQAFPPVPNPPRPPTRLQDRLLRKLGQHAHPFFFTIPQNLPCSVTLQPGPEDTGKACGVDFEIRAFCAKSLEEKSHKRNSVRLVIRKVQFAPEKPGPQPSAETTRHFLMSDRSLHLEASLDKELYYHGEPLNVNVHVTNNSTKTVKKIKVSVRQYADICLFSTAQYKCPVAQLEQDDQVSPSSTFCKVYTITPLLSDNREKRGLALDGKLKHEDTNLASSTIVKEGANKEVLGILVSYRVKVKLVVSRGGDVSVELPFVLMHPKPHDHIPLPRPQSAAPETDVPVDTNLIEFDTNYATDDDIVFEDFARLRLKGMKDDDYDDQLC

| Compound | Emax at 10 µM [%] |
| --- | --- |
| COCCOCCOCCOCCOCCOCCOCCOCCOCCOCCOCCOCCC(=O)N[C@@H](CCCCN)C(=O)N[C@@H](CCCNC(=N)N)C(=O)N[C@@H](CCCNC(=N)N)C(=O)N[C@@H](CCSC)C(=O)N[C@@H](CCSC)C(=O)NCC(=O)N[C@@H](CCSC)C(=O)N[C@H](C(=O)N[C@@H](Cc1ccccc1)C(=O)N[C@@H](CCC(N)=O)C(=O)N[C@@H](CO)C(=O)N[C@@H](CC(C)C)C(=O)N[C@@H](CS)C(=O)NCC(=O)N[C@H](C)C(=O)O)C(C)C [compound 36] | 63 |
| COCCOCCOCCOCCOCCOCCOCCOCCOCCOCCOCCOCCC(=O)N[C@@H](CCCCN)C(=O)N[C@@H](CCCNC(=N)N)C(=O)N[C@@H](CCCNC(=N)N)C(=O)N[C@@H](CC(C)C)C(=O)N[C@@H](CC(C)C)C(=O)NCC(=O)N[C@@H](CC(C)C)C(=O)N[C@H](C(=O)N[C@@H](Cc1ccccc1)C(=O)N[C@@H](CCC(N)=O)C(=O)N[C@@H](CO)C(=O)N[C@@H](CC(C)C)C(=O)N[C@@H](CS)C(=O)NCC(=O)N[C@H](C)C(=O)O)C(C)C [compound 37] | 12 |
